Laboratory results: US8748423B2, “Compositions and methods for the prevention and treatment of cancer” (Kinex Pharmaceuticals, LLC, priority 2010, dated 2014)
“And” between values parts separate entries of the source, which are not always exact repeats. Equal entries are not always repeated. “Also recorded” adds a separate entry of the source.

How the values were obtained:
GL261 glioma [1] = assay: GL261 intracerebral tumors in SCID mice; format: in vivo, B6.CB17-Prkdc^scid/SzJ mice
Text: (§1) FIGS. 4A-C are a series of graphs showing the survival of C57BL6 mice with intracerebral GL261 glioma implants. Mice received intracerebral implants of 1×10^5 GL261 cells by stereotactic injection at 2 mm lateral, 1 mm anterior to bregma at 3 mm depth. After 4 days mice began indicated regimen of oral Compound 76. […] Compound 76 extended median survival from 21 to 29 days (range). n=10. […] Compound 76 extended median survival >100 days (range), with up to 60% of drug treated mice experiencing complete tumor regression, n=10. Long term survivors were confirmed tumor free by high field MRI in FIG. 6. […] See high field MRI in FIG. 6
(§2) Compound 76 was also evaluated in the orthotropic GL261 glioma model in immune-competent, syngeneic C57BL/6 mice. Mice implanted intracerebrally with 1×10^5 GL261 cells treated with vehicle alone (saline) have a median survival time (MeST) of 21 days (range 18-28). Mice treated by oral Compound 76 (30 mg/kg, b.i.d.) have a MeST of 30.5 days ranging 23-32 days. In contrast, when Compound 76 is given orally at (30 mg/kg, s.i.d.) the MeST increases to over 120 days, with more than 60% of the treatment group still alive 12 months later (p<0.0001). […] Further experiments were performed using a SCID version of C57BL/6 mice (B6.CB17-Prkdc^scid/SzJ), a mouse model of B6 background, but is immune-compromised.
as §2, with “was” for “was also”

GL261 glioma [2] = assay: orthotropic GL261 glioma model, immune-competent mice; format: in vivo, C57BL/6 mice
Text: as §1, §2
as §2, with “was” for “was also”

[3] = body weight in GL261 glioma survival study; format: in vivo, C57BL/6 mice
Protocol: The studies were conducted in C57BL/6 mice. GL261 glioma cells (1×10^5 in 5 μl DMEM) were implanted intracranial coordinates: bregma, lateral 2.0 mm, anterior 1.2 mm, 3.0 mm depth dura. Treatment was initiated 3 days post implantation.
FIGS. 2A-F show the weight gain in each of the C57BL/6 mice in the different treatment groups. The average weight at endpoint for each of the treatment groups is shown below in Table 12. FIG. 3 is a graph showing the average weights over a 40-day period for each of the treatment groups.

O=C(Cc1ccc(-c2ccc(N3CCOCC3)cc2)cn1)NCc1cccc(F)c1 [Compound 76]
median survival time (MeST), range (GL261 glioma [1]): 29 to 75 days
tumor reoccurrence by MRI (GL261 glioma [1]; after drug was discontinued): tumor reoccurrence; also recorded: all proceeded to develop lethal GL261 gliomas
long term survivors (GL261 glioma [1]; oral 30 mg/kg once daily): no long term survivors
median survival time (MeST) (GL261 glioma [1]; oral 30 mg/kg once daily, 30 mg/kg): 29 days and 40 days
residual tumor by MRI (GL261 glioma [2]; 30 mg/kg s.i.d., C57BL/6 mice): no residual tumor is observed
histopathology of tumor site / residual GL261 glioma (GL261 glioma [2]; Compound 76 treated mice): large areas of necrosis and lymphocytic infiltration; also recorded: lymphocytic infiltration of the tumor site
brain edema (GL261 glioma [2]; compared with placebo or Temodar treated mice): much less brain edema
median survival time (MeST), range (GL261 glioma [2]; oral 30 mg/kg, b.i.d.): 23 to 32 days
median survival time (MeST) (GL261 glioma [2]; oral 30 mg/kg, b.i.d. (twice daily), vehicle 21 days, 30 mg/kg): 29 days and 30.5 days
treatment group still alive 12 months later (GL261 glioma [2]; oral 30 mg/kg, s.i.d.): more than 60%
growth rate of intracerebral GL261 glioma (GL261 glioma [2]; relative to control groups): very significantly slows the rate of tumor growth; also recorded: slows the growth rate
treated mice with complete tumor regression (GL261 glioma [2]; single dose per day (s.i.d.)): up to 60%
Average weight at endpoint ([3]; 15 mg/kg): 16.9 g
Average weight at endpoint ([3]; 30 mg/kg): 15.0 g
